As usually defined, the chromatographic logP is lipophilicity estimated from chromatographic retention. The low end stands for lower lipophilicity, the high end for higher lipophilicity. In general, LogP refers to the decadic logarithm of the partition coefficient of the neutral form, usually between octanol and water. A low value points to lower lipophilicity.

Marks after values point to notes of the source that are not given here.

Here are results for 25 molecules from US9090600B2, “Fungicidal 4-substituted-3-{phenyl[(heterocyclylmethoxy)imino]methyl}-1,2,4-oxadizol-5(4H)-one derivatives” (BAYER INTELLECTUAL PROPERTY GMBH, priority 2011, dated 2015).

The subject of data set [1] is Mycosphaerella graminicola. Kind of data set: In vivo test on Mycosphaerella graminicola (wheat leaf spot). As to conditions: wheat plants, spray, 500 ppm, grading 21 to 28 days after contamination. On the procedure: The active ingredients tested are prepared by homogenization in a mixture of acetone/tween/DMSO, then diluted with water to obtain the desired active material concentration.
Wheat plants (Scipion variety), sown on a 50/50 peat soil-pozzolana substrate in starter cups and grown at 22° C. (12 h)/20° C. (12 h), are treated at the 1-leaf stage (10 cm tall) by spraying with the aqueous suspension described above. Plants, used as controls, are treated with an aqueous solution not containing the active material.
After 24 hours, the plants are contaminated by spraying them with an aqueous suspension of cryopreserved Mycosphaerella graminicola spores (500.000 spores per ml). The contaminated wheat plants are incubated for 72 hours at 18° C. and at 100% relative humidity, and then for 21 to 28 days at 90% relative humidity.
Grading (% of efficacy) is carried out 21 to 28 days after the contamination, in comparison with the control plants.
(§1) Under these conditions, good (at least 70%) or total protection is observed at a dose of 500 ppm with the following compounds: […]

The next data set has as its system Phytophthora infestans. It counts as in vivo. As to conditions: tomato plants, spray, 500 ppm, grading 5 days after contamination.
The nature of data set [2]: Measurement of log P values by HPLC on reversed phase columns (EEC directive 79/831 Annex V.A8). As to conditions: pH 2.7.
Another data set deals with Puccinia recondita. In words: In vivo test on Puccinia recondita (brown rust). Conditions: wheat plants, spray, 500 ppm, grading 10 days after contamination. On the procedure:
(§2) The active ingredients tested are prepared by homogenization in a mixture of acetone/tween/DMSO, then diluted with water to obtain the desired active material.
Wheat plants (Scipion variety) sown on 50/50 peat soil-pozzolana substrate in starter cups and grown at 22° C. (12 h)/20° C. (12 h), are treated at the 1-leaf stage (10 cm tall) by spraying with the aqueous suspension described above.
Plants, used as controls, are treated with an aqueous solution not containing the active material. After 24 hours, the plants are contaminated by spraying the leaves with an aqueous suspension of Puccinia recondite spores (100.000 spores per ml). The spores are collected from a 10-day-old contaminated wheat and are suspended in water containing 2.5 ml/l of tween 80 10%. The contaminated wheat plants are incubated for 24 hours at 20° C. and at 100% relative humidity, and then for 10 days at 20° C. and at 70% relative humidity. Grading is carried out 10 days after the contamination, in comparison with the control plants.
as §1

In another data set the test system is Uromyces appendiculatus. In words: In vivo test on Uromyces appendiculatus (brown rust of bean). Conditions: Saxa variety plants, spray, 500 ppm, grading 10 days after contamination. Here is the method:
as §2
Wheat plants (Saxa variety) sown on 50/50 peat soil-pozzolana substrate in starter cups and grown at 24° C., are treated at the 2-leaf stage (9 cm tall) by spraying with the aqueous suspension described above.
(§3) Plants, used as controls, are treated with an aqueous solution not containing the active material.
After 24 hours, the plants are contaminated by spraying the leaves with an aqueous suspension of Uromyces appendiculatus spores (150.000 spores per ml). The spores are collected from a 10-day-old contaminated […] and are suspended in water containing 2.5 ml/l of tween 80 10%. The contaminated […] are incubated for 24 hours at 20° C. and at 100% relative humidity, and then for 10 days at 20° C. and at 70% relative humidity. Grading is carried out 10 days after the contamination, in comparison with the control plants.
as §1

The conditions of data set [3]: pH 2.7.
For another data set, the system named is Pyrenophora teres. In words: In vivo test on Pyrenophora teres (barley net blotch). Conditions: barley plants, spray, 500 ppm, grading 12 days after contamination. Here is the method:
The active ingredients tested are prepared by homogenization in a mixture of acetone/Tween/DMSO, then diluted with water to obtain the desired active material concentration.
Barley plants (Plaisant variety), sown on a 50/50 peat soil-pozzolana substrate in starter cups and grown at 22° C. (12 h)/20° C. (12 h), are treated at the 1-leaf stage (10 cm tall) by spraying with the active ingredient prepared as described above.
as §3
After 24 hours, the plants are contaminated by spraying them with an aqueous suspension of Pyrenophora teres spores (12.000 spores per ml). The spores are collected from a 12-day-old culture.
The contaminated barley plants are incubated for 24 hours at about 20° C. and at 100% relative humidity, and then for 12 days at 80% relative humidity.
Grading is carried out 12 days after the contamination, in comparison with the control plants.
Under these conditions, good (at least 70%) is observed at a dose of 500 ppm with the following compounds: […]

The test system of a further data set is Plasmopara viticola. Kind of data set: Plasmopara test (grapevines)/preventive. Conditions: preventive spray, 10 ppm of active ingredient, evaluated 6 days after inoculation. It is filed as in vivo. Put shortly: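 Young grapevines sprayed preventively with compound formulated in acetone/dimethylacetamide with emulsifier, diluted in water, then inoculated with P. viticola spores after drying. Held 1 day at ~20 °C/100% RH, 4 days in greenhouse at ~21 °C/~90% RH, then misted for 1 day. Efficacy scored 6 days post-inoculation (0% = untreated control, 100% = no disease).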

For the molecule `CC(Nc1cccc(CO/N=C(/c2ccccc2)c2noc(=O)n2C)n1)c1ccccc1` (stereo not drawn) [Example 43, 4-methyl-3-{(Z)-phenyl[({6-[(1-phenylethyl)amino]pyridin-2-yl}methoxy)imino]methyl}-1,2,4-oxadiazol-5(4H)-one], the Eff. % worked out at 91% in data set [1], 100% in the data set with Phytophthora infestans, 94% with Puccinia recondita and 75% with Uromyces appendiculatus. The molecule further gave a chromatographic logP in data set [2] of 2.86.
Consider `CCCCCCOC(=O)Nc1nc(CO/N=C(/c2ccccc2)c2noc(=O)n2C)cs1` [Example 53], for which, in data set [3], the LogP is 4.51 [a]. The Eff. % was found to be 70% in the data set with Pyrenophora teres and 73% with Phytophthora infestans.
For the molecule `Cn1c(/C(=N\OCc2cccc(NC(=O)CCC3CC3)n2)c2ccccc2)noc1=O` [Example 62], the LogP in data set [3] is 3.51 [a]. The figures for the Eff. % in the data set with Phytophthora infestans and in the data set on Uromyces appendiculatus were 99% and 71%, respectively.
In the case of `CCC(=O)Nc1cccc(CO/N=C(/c2ccccc2)c2noc(=O)n2C)n1` [Example 71], the LogP in data set [3] was 2.77 [a]. Also, the Eff. % in data set [1] turned out to be 88%; in the data set on Pyrenophora teres, 70%; with Phytophthora infestans, 99%.
As to `Cn1c(/C(=N\OCc2cccc(NC(=O)CCC3CCCC3)n2)c2ccccc2)noc1=O` [Example 84], the LogP in data set [3] was 4.36 [a]. The Eff. % in the data set on Pyrenophora teres is reported as 70%; in the data set on Phytophthora infestans, 100%.
For `C=CCCCCCC(=O)Nc1cccc(CO/N=C(/c2ccccc2)c2noc(=O)n2C)n1` [Example 99], in data set [3], the LogP was 4.3 [a]. Also, the Eff. % in the data set on Phytophthora infestans is reported as 99%; with Uromyces appendiculatus, 71%.
On the same counts, the results for `CC(Oc1ccccc1Br)C(=O)Nc1nc(CO/N=C(/c2ccccc2)c2noc(=O)n2C)cs1` (stereo not drawn) [Example 113] are 4.2 [a], 90% and 79%.
In the case of `Cc1cccc(/C(=N/OCc2cccc(NC(=O)OCc3ccccc3)n2)c2noc(=O)n2C)c1` [Example 117], in data set [3], the log partition coefficient (LogP) was 4.31 [a]. Further, the Eff. % was 90% in data set [1] and 79% in the data set with Pyrenophora teres.
`CCCCC(=O)Nc1cccc(CO/N=C(/c2cccc(F)c2)c2noc(=O)n2C)n1` [Example 140]: the LogP in data set [3] is 3.61 [a]. Further, the Eff. % in the data set on Phytophthora infestans was 100%; in the data set with Plasmopara viticola, 85%; in the data set on Puccinia recondita, 86%; in the data set with Uromyces appendiculatus, 73%.
In the case of `COc1ccc(/C(=N/OCc2cccc(NC(=O)OC(C)CC(C)C)n2)c2noc(=O)n2C)cc1` (stereo not drawn) [Example 185], in data set [3], the LogP is 4.72 [a]. Besides, the values for the Eff. % in the data set with Phytophthora infestans, with Puccinia recondita and in the data set with Uromyces appendiculatus were 83%, 78% and 75%, respectively.
For `Cn1c(/C(=N\OCc2cccc(NC(=O)OC(C)(C)C)n2)c2cccc(F)c2)noc1=O` [Example 206], the LogP in data set [3] was 4.09 [a]. In addition, the Eff. % with Phytophthora infestans was determined as 100%; in the data set with Plasmopara viticola it was 81%; in the data set with Uromyces appendiculatus, 91%.
Turning to `CC(Oc1ccc(Br)cc1)C(=O)Nc1nc(CO/N=C(/c2ccccc2)c2noc(=O)n2C)cs1` (stereo not drawn) [Example 216], the LogP in data set [3] is 4.17 [a]. The Eff. % in the data set with Phytophthora infestans is given as 95%; in the data set with Uromyces appendiculatus, 71%.
As for `C#CCCOC(=O)Nc1cccc(CO/N=C(/c2cccc(OC)c2)c2noc(=O)n2C)n1` [Example 228], the LogP in data set [3] is 3.33 [a]. Besides, the Eff. % with Phytophthora infestans is given as 100%; in the data set on Plasmopara viticola, 93%; in the data set on Puccinia recondita, 81%; in the data set on Uromyces appendiculatus, 70%.
Consider `CCCC(C)(C)OC(=O)Nc1cccc(CO/N=C(/c2ccccc2)c2noc(=O)n2C)n1` [Example 233, 2-methylpentan-2-yl {6-[({[(Z)-(4-methyl-5-oxo-4,5-dihydro-1,2,4-oxadiazol-3-yl)(phenyl)methylene]amino}oxy)methyl]pyridin-2-yl}carbamate], for which the Eff. % is 99% in the data set with Phytophthora infestans, 78% with Plasmopara viticola and 98% with Puccinia recondita. Besides, the chromatographic logP in data set [2] came out at 4.77.
Take `Cc1cccc(C(=NOCc2cccc(NC(=O)OC3CCCCC3)n2)c2noc(=O)n2C)c1` [Example 250]: the lipophilicity (LogP) in data set [3] was 4.82 [a]. In addition, the results for the Eff. % (in data set [1]; with Pyrenophora teres; with Phytophthora infestans) were 96%, 79% and 80%, respectively.
On the same counts, the results for `Cn1c(C(=NOCc2cccc(NC(=O)Cc3cc(F)ccc3F)n2)c2ccccc2)noc1=O` [Example 255] are 3.62 [a], 88%, 70% and 98%.
Regarding `C=CCCC(=O)Nc1cccc(CON=C(c2ccccc2)c2noc(=O)n2C)n1` [Example 256], the LogP in data set [3] is 3.25 [a]. The figures for the Eff. % in the data set with Pyrenophora teres and with Phytophthora infestans were 90% and 100%, respectively.
As for `Cn1c(C(=NOCc2cccc(NC(=O)OCCc3ccccc3)n2)c2ccc(F)cc2)noc1=O` [Example 258], in data set [3], the LogP was 4.24 [a]. For the same molecule, the Eff. % in the data set with Phytophthora infestans amounted to 89%; in the data set with Puccinia recondita, 81%; in the data set with Uromyces appendiculatus, 93%.
On to `CC(C)C=CCCCCC(=O)Nc1cccc(CON=C(c2ccccc2)c2noc(=O)n2C)n1` [Example 268], for which the LogP in data set [3] was 5.06 [a]. Besides, the Eff. % with Pyrenophora teres is listed as 96%; in the data set with Phytophthora infestans, 100%.
Turning to `CC(Oc1ccc(Cl)cc1)C(=O)Nc1nc(CO/N=C(/c2ccccc2)c2noc(=O)n2C)cs1` (stereo not drawn) [Example 276], the LogP in data set [3] is 4.07 [a]. For the same molecule, the Eff. % in the data set with Phytophthora infestans was found to be 98%; in the data set with Uromyces appendiculatus it was 89%.
For `CCn1c(C(=NOCc2cccc(NC(=O)CC(C)C)n2)c2ccccc2)noc1=O` [Example 280], in data set [3], the LogP is 3.7 [a]. Also, the results for the Eff. % with Phytophthora infestans, with Puccinia recondita and in the data set with Uromyces appendiculatus were 100%, 98% and 83%, respectively.
For the molecule `CCCCOC(=O)Nc1cccc(CO/N=C(/c2cccc(F)c2)c2noc(=O)n2C)n1` [Example 295], the LogP in data set [3] is 4.14 [a]. The figures for the Eff. % in the data set with Phytophthora infestans, with Plasmopara viticola and in the data set on Uromyces appendiculatus were 97%, 89% and 70%, respectively.
As for `COCC(=O)Nc1cccc(CO/N=C(/c2ccccc2)c2noc(=O)n2C)n1` [Example 379], the LogP in data set [3] was 2.73 [a]. For the same molecule, the Eff. % in the data set on Pyrenophora teres and with Phytophthora infestans was 100% in each case.
As for `CCOCCOC(=O)Nc1cccc(CO/N=C(/c2ccccc2)c2noc(=O)n2C)n1` [Example 400], the lipophilicity (LogP) in data set [3] was 3.17 [a]. Also, the results for the Eff. % in the data set with Phytophthora infestans and in the data set with Uromyces appendiculatus were 100% and 94%, respectively.
For `CCCCCOC(=O)Nc1cccc(CO/N=C(/c2cccc(F)c2)c2noc(=O)n2C)n1` [Example 406], the LogP in data set [3] was 4.53 [a]. Also, the Eff. % is given as 79% in data set [1]; 94% with Phytophthora infestans; 79% with Plasmopara viticola; 81% in the data set on Puccinia recondita; 79% in the data set with Uromyces appendiculatus.
